Data from patent US11053204B2, “Pyrimidinyloxy benzene derivatives as herbicides” (FMC Corporation, priority 2015, dated 2021).

Columns and labels:
Format in all cases: in vivo
[1] = test system: blackgrass (Alopecurus myosuroides); assay: Test A postemergence, visual injury rating; settings: 0 is no effect, 100 is complete control
In short: (§1)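 Scoring: eye-based comparison with untreated controls, 0 for no effect through 100 for complete control, at about day 10. Treatments: directed soil spray preemergence; foliar spray postemergence on 2–10 cm plants at the one- to two-leaf stage. Medium: loam soil with sand.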

[2] = test system: galium (catchweed bedstraw, Galium aparine); assay: Test A postemergence, visual injury rating; settings: 0 is no effect, 100 is complete control
In short: as §1

[3] = test system: barnyardgrass (Echinochloa crus-galli); assay: Test A postemergence, visual injury rating; settings: 0 is no effect, 100 is complete control
In short: as §1

[4] = test system: oilseed rape (Brassica napus); assay: Test C preemergence, plant response rating; settings: Preemergence
In short: (§2)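 Pre-emergence: seeds sown in loam soil–sand blend or silt loam and sprayed with test chemicals in a non-phytotoxic solvent mixture with surfactant. Post-emergence: plants 2 to 18 cm (1- to 4-leaf stage) in peat-based potting medium, same formulation. Greenhouse 13 to 15 d; visual rating 0 (no effect) to 100 (complete control) versus controls.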

[5] = test system: ryegrass, Italian (Italian ryegrass, Lolium multiflorum); assay: Test C preemergence, plant response rating; settings: Preemergence
In short: as §2

[6] = test system: foxtail, giant (giant foxtail, Setaria faberii); assay: Test C preemergence, plant response rating; settings: Preemergence
In short: as §2

[7] = test system: morningglory (Ipomoea coccinea); assay: Test C preemergence, plant response rating; settings: Preemergence
In short: as §2

[8] = test system: blackgrass (Alopecurus myosuroides); assay: Test C preemergence, plant response rating; settings: Preemergence
In short: as §2

[9] = test system: nutsedge, yellow (yellow nutsedge, Cyperus esculentus); assay: Test C preemergence, plant response rating; settings: Preemergence
In short: as §2

[10] = test system: wheat (winter wheat, Triticum aestivum); assay: Test C preemergence, plant response rating; settings: Preemergence
In short: as §2

[11] = test system: ragweed (common ragweed, Ambrosia elatior); assay: Test C preemergence, plant response rating; settings: Preemergence
In short: as §2

[12] = test system: waterhemp (common waterhemp, Amaranthus rudis); assay: Test C preemergence, plant response rating; settings: Preemergence
In short: as §2

corn (Zea mays) = assay: Test C preemergence, plant response rating; settings: Preemergence
In short: as §2

[13] = test system: crabgrass, large (large crabgrass, Digitaria sanguinalis); assay: Test C preemergence, plant response rating; settings: Preemergence
In short: as §2

soybean (Glycine max) = assay: Test C preemergence, plant response rating; settings: Preemergence
In short: as §2

[14] = test system: velvetleaf (Abutilon theophrasti); assay: Test C preemergence, plant response rating; settings: Preemergence
In short: as §2

[15] = test system: lambsquarters (Chenopodium album); assay: Test C preemergence, plant response rating; settings: Preemergence
In short: as §2

[16] = 125 g ai/ha, 0 to 100 scale, approximately 10 days

Compound: CCCCC(=O)c1c(Oc2ncc(Cl)cn2)cccc1C(F)(F)F [Compound 130]
- Blackgrass plant response rating [1, 16]: 50
- Blackgrass plant response rating (0 to 100 scale) ([1]; 500 g ai/ha): 90
- Galium plant response rating [2, 16]: 100
- Galium plant response rating (0 to 100 scale) ([2]; 500 g ai/ha): 100
- Barnyardgrass plant response rating [3, 16]: 90
- Barnyardgrass plant response rating (0 to 100 scale) ([3]; 500 g ai/ha): 100
- Plant response rating, Oilseed Rape ([4]; 125 g ai/ha, scale of 0 to 100): 95
- Plant response rating, Oilseed Rape ([4]; 31 g ai/ha, scale 0 to 100): 10
- Plant response rating, Oilseed Rape ([4]; 62 g ai/ha, scale 0 to 100): 40
- Plant response rating, Ryegrass, Italian ([5]; 125 g ai/ha, scale of 0 to 100): 70
- Plant response rating, Ryegrass, Italian ([5]; 31 g ai/ha, scale 0 to 100): 35
- Plant response rating, Ryegrass, Italian ([5]; 62 g ai/ha, scale 0 to 100): 60
- Plant response rating, Foxtail, Giant ([6]; 125 g ai/ha, scale of 0 to 100): 100
- Plant response rating, Foxtail, Giant ([6]; 31 g ai/ha, scale 0 to 100): 70
- Plant response rating, Foxtail, Giant ([6]; 62 g ai/ha, scale 0 to 100): 98
- Plant response rating, Morningglory ([7]; 125 g ai/ha, scale of 0 to 100): 10
- Plant response rating, Morningglory ([7]; 31 g ai/ha, scale 0 to 100): 5
- Plant response rating, Morningglory ([7]; 62 g ai/ha, scale 0 to 100): 20
- Plant response rating, Blackgrass ([8]; 125 g ai/ha, scale of 0 to 100): 85
- Plant response rating, Blackgrass ([8]; 16 g ai/ha, scale 0 to 100): 30
- Plant response rating, Blackgrass ([8]; 31 g ai/ha, scale 0 to 100): 30
- Plant response rating, Blackgrass ([8]; 62 g ai/ha, scale 0 to 100): 60
- Plant response rating, Nutsedge, Yellow ([9]; 125 g ai/ha, scale of 0 to 100): 0
- Plant response rating, Nutsedge, Yellow ([9]; 31 g ai/ha, scale 0 to 100): 0
- Plant response rating, Nutsedge, Yellow ([9]; 62 g ai/ha, scale 0 to 100): 0
- Plant response rating, Wheat ([10]; 125 g ai/ha, scale of 0 to 100): 0
- Plant response rating, Wheat ([10]; 31 g ai/ha, scale 0 to 100): 0
- Plant response rating, Wheat ([10]; 62 g ai/ha, scale 0 to 100): 5
- Plant response rating, Ragweed ([11]; 125 g ai/ha, scale of 0 to 100): 10
- Plant response rating, Ragweed ([11]; 31 g ai/ha, scale 0 to 100): 0
- Plant response rating, Ragweed ([11]; 62 g ai/ha, scale 0 to 100): 5
- Plant response rating, Waterhemp ([12]; 125 g ai/ha, scale of 0 to 100): 100
- Plant response rating, Waterhemp ([12]; 31 g ai/ha, scale 0 to 100): 100
- Plant response rating, Waterhemp ([12]; 62 g ai/ha, scale 0 to 100): 100
- Plant response rating, Corn (corn (Zea mays); 125 g ai/ha, scale of 0 to 100): 25
- Plant response rating, Corn (corn (Zea mays); 16 g ai/ha, scale 0 to 100): 5
- Plant response rating, Corn (corn (Zea mays); 31 g ai/ha, scale 0 to 100): 0
- Plant response rating, Corn (corn (Zea mays); 62 g ai/ha, scale 0 to 100): 5
- Plant response rating, Crabgrass, Large ([13]; 125 g ai/ha, scale of 0 to 100): 100
- Plant response rating, Crabgrass, Large ([13]; 16 g ai/ha, scale 0 to 100): 98
- Plant response rating, Crabgrass, Large ([13]; 31 g ai/ha, scale 0 to 100): 100
- Plant response rating, Crabgrass, Large ([13]; 62 g ai/ha, scale 0 to 100): 100
- Plant response rating, Soybean (soybean (Glycine max); 125 g ai/ha, scale of 0 to 100): 30
- Plant response rating, Soybean (soybean (Glycine max); 31 g ai/ha, scale 0 to 100): 0
- Plant response rating, Soybean (soybean (Glycine max); 62 g ai/ha, scale 0 to 100): 10
- Plant response rating, Velvetleaf ([14]; 125 g ai/ha, scale of 0 to 100): 85
- Plant response rating, Velvetleaf ([14]; 31 g ai/ha, scale 0 to 100): 10
- Plant response rating, Velvetleaf ([14]; 62 g ai/ha, scale 0 to 100): 75
- Plant response rating, Lambsquarters ([15]; 125 g ai/ha, scale of 0 to 100): 95
- Plant response rating, Lambsquarters ([15]; 31 g ai/ha, scale 0 to 100): 30
- Plant response rating, Lambsquarters ([15]; 62 g ai/ha, scale 0 to 100): 35

Compound: CCCCC(=O)c1c(Br)cccc1Oc1ncc(Cl)cn1 [Compound 79]
- Blackgrass plant response rating (0 to 100 scale) ([1]; 125 g ai/ha): 50
- Blackgrass plant response rating (0 to 100 scale) ([1]; 500 g ai/ha): 90
- Galium plant response rating (0 to 100 scale) ([2]; 125 g ai/ha): 90
- Galium plant response rating (0 to 100 scale) ([2]; 500 g ai/ha): 100
- Barnyardgrass plant response rating (0 to 100 scale) ([3]; 125 g ai/ha): 90
- Barnyardgrass plant response rating (0 to 100 scale) ([3]; 500 g ai/ha): 100
- Plant response rating, Oilseed Rape ([4]; 125 g ai/ha, scale of 0 to 100): 95
- Plant response rating, Oilseed Rape ([4]; 16 g ai/ha, scale 0 to 100): 0
- Plant response rating, Oilseed Rape ([4]; 31 g ai/ha, scale 0 to 100): 0
- Plant response rating, Oilseed Rape ([4]; 62 g ai/ha, scale 0 to 100): 70
- Plant response rating, Ryegrass, Italian ([5]; 125 g ai/ha, scale of 0 to 100): 35
- Plant response rating, Ryegrass, Italian ([5]; 16 g ai/ha, scale 0 to 100): 0
- Plant response rating, Ryegrass, Italian ([5]; 31 g ai/ha, scale 0 to 100): 10
- Plant response rating, Ryegrass, Italian ([5]; 62 g ai/ha, scale 0 to 100): 30
- Plant response rating, Foxtail, Giant ([6]; 62 g ai/ha, scale of 0 to 100): 80
- Plant response rating, Foxtail, Giant ([6]; 125 g ai/ha, scale of 0 to 100): 98
- Plant response rating, Foxtail, Giant ([6]; 16 g ai/ha, scale 0 to 100): 40
- Plant response rating, Foxtail, Giant ([6]; 31 g ai/ha, scale 0 to 100): 70
- Plant response rating, Morningglory ([7]; 125 g ai/ha, scale of 0 to 100): 60
- Plant response rating, Morningglory ([7]; 16 g ai/ha, scale 0 to 100): 20
- Plant response rating, Morningglory ([7]; 31 g ai/ha, scale 0 to 100): 10
- Plant response rating, Morningglory ([7]; 62 g ai/ha, scale 0 to 100): 10
- Plant response rating, Blackgrass ([8]; 62 g ai/ha, scale of 0 to 100): 75
- Plant response rating, Blackgrass ([8]; 125 g ai/ha, scale of 0 to 100): 90
- Plant response rating, Blackgrass ([8]; 16 g ai/ha, scale 0 to 100): 5
- Plant response rating, Blackgrass ([8]; 31 g ai/ha, scale 0 to 100): 10
- Plant response rating, Nutsedge, Yellow ([9]; 125 g ai/ha, scale of 0 to 100): 0
- Plant response rating, Nutsedge, Yellow ([9]; 16 g ai/ha, scale 0 to 100): 0
- Plant response rating, Nutsedge, Yellow ([9]; 31 g ai/ha, scale 0 to 100): 0
- Plant response rating, Nutsedge, Yellow ([9]; 62 g ai/ha, scale 0 to 100): 0
- Plant response rating, Wheat ([10]; 125 g ai/ha, scale of 0 to 100): 15
- Plant response rating, Wheat ([10]; 16 g ai/ha, scale 0 to 100): 0
- Plant response rating, Wheat ([10]; 31 g ai/ha, scale 0 to 100): 5
- Plant response rating, Wheat ([10]; 62 g ai/ha, scale 0 to 100): 5
- Plant response rating, Ragweed ([11]; 125 g ai/ha, scale of 0 to 100): 30
- Plant response rating, Ragweed ([11]; 16 g ai/ha, scale 0 to 100): 0
- Plant response rating, Ragweed ([11]; 31 g ai/ha, scale 0 to 100): 0
- Plant response rating, Ragweed ([11]; 62 g ai/ha, scale 0 to 100): 20
- Plant response rating, Waterhemp ([12]; 125 g ai/ha, scale of 0 to 100): 100
- Plant response rating, Waterhemp ([12]; 16 g ai/ha, scale 0 to 100): 100
- Plant response rating, Waterhemp ([12]; 31 g ai/ha, scale 0 to 100): 98
- Plant response rating, Waterhemp ([12]; 62 g ai/ha, scale 0 to 100): 95
- Plant response rating, Corn (corn (Zea mays); 62 g ai/ha, scale of 0 to 100): 5
- Plant response rating, Corn (corn (Zea mays); 125 g ai/ha, scale of 0 to 100): 30
- Plant response rating, Corn (corn (Zea mays); 16 g ai/ha, scale 0 to 100): 0
- Plant response rating, Corn (corn (Zea mays); 31 g ai/ha, scale 0 to 100): 0
- Plant response rating, Crabgrass, Large ([13]; 62 g ai/ha, scale of 0 to 100): 100
- Plant response rating, Crabgrass, Large ([13]; 125 g ai/ha, scale of 0 to 100): 98
- Plant response rating, Crabgrass, Large ([13]; 16 g ai/ha, scale 0 to 100): 65
- Plant response rating, Crabgrass, Large ([13]; 31 g ai/ha, scale 0 to 100): 98
- Plant response rating, Soybean (soybean (Glycine max); 125 g ai/ha, scale of 0 to 100): 5
- Plant response rating, Soybean (soybean (Glycine max); 16 g ai/ha, scale 0 to 100): 0
- Plant response rating, Soybean (soybean (Glycine max); 31 g ai/ha, scale 0 to 100): 0
- Plant response rating, Soybean (soybean (Glycine max); 62 g ai/ha, scale 0 to 100): 5
- Plant response rating, Velvetleaf ([14]; 125 g ai/ha, scale of 0 to 100): 75
- Plant response rating, Velvetleaf ([14]; 16 g ai/ha, scale 0 to 100): 10
- Plant response rating, Velvetleaf ([14]; 31 g ai/ha, scale 0 to 100): 5
- Plant response rating, Velvetleaf ([14]; 62 g ai/ha, scale 0 to 100): 20
- Plant response rating, Lambsquarters ([15]; 125 g ai/ha, scale of 0 to 100): 85
- Plant response rating, Lambsquarters ([15]; 16 g ai/ha, scale 0 to 100): 0
- Plant response rating, Lambsquarters ([15]; 31 g ai/ha, scale 0 to 100): 10
- Plant response rating, Lambsquarters ([15]; 62 g ai/ha, scale 0 to 100): 70
